Laboratory results: patent publication US10973807B2, “Pharmaceutical composition comprising pyrrolo-fused six-membered heterocyclic compound” (Jiangsu Hengrui Medicine Co., Ltd., priority 2016, dated 2021)

Columns and labels:
[1] = Water solubility; format: physicochemical; conditions: compound or a pharmaceutically acceptable salt thereof
[2] = Stability in the presence of moisture; format: physicochemical; conditions: compound or a pharmaceutically acceptable salt thereof

water solubility [1]: poor
stability in the presence of moisture [2]: unstable
SMILES: CCN(CC)CCN1CCc2[nH]c(/C=C3\C(=O)Nc4ccc(F)cc43)c(C)c2C1=O.O=C(O)C[C@H](O)C(=O)O [compound of formula (I), 5-(2-diethylamino-ethyl)-2-(5-fluoro-2-oxo-1,2-dihydro-indol-3-ylidene-methyl)-3-methyl-1,5,6,7-tetrahydro-pyrrolo[3,2-c]pyridin-4-one]
